Patent US8729031B2, “Compounds” (priority 2009, dated 2014)
In brackets after ≈: the same amount, converted by molar mass.

Key:
[1] = test system: Methicillin Resistant Staphylococcus aureus (MRSA, ATCC 33591); experiment: Neutropaenic mouse thigh infection model; format: in vivo; details: for antimicrobial effect in thigh infection: IV at 5, 10, 20, 30 and 40 mg/Kg×2
Protocol: In vivo efficacy of compounds of the present invention in the treatment of bacterial tissue infections was evaluated using a neutropaenic mouse thigh model. Groups of 6 male ICR mice weighing 24±2 g were used. Test animals were immunosuppressed by 2 intraperitoneal injections of cyclophosphamide, the first at 150 mg/Kg 4 days before infection (day-4) and the second at 100 mg/Kg 1 day before infection (day-1). On day 0, individual animals were inoculated intramuscularly (IM) into the right thigh of test animals with 1.15×10^5 CFU/mouse of Methicillin Resistant Staphylococcus aureus (MRSA, ATCC 33591) suspended in 100 μL of sterile PBS, pH 7.4. Vehicle and test substances were administered intravenously (IV) at a dose volume of 8 mL/Kg, 2 and 14 hours after thigh infection. Example 1a (Compound I) and vancomycin were dissolved in 15% hydroxypropyl-β-cyclodextrin/4.4% glucose/1 mM potassium phosphate buffer, pH 7.0 and administered at doses of 5, 10, 20, 30 and 40 mg/Kg. At 26 hours after inoculation, muscle of the right thigh of each test mouse was harvested. From an additional group with no treatment, muscle of the right thigh was harvested at 2 hours after inoculation for the basal CFU determination. The removed muscle tissues were then homogenized in 3-4 mL of PBS, pH 7.4 with a ceramic mortar. Homogenates of 0.1 mL were used for serial 10-fold dilutions and plated on Mueller Hinton broth in 1.5% Bacto agar for CFU determination.

[2] = In vivo plasma half-life in mice; details: mouse, 29.76 mg/kg, male CD-1 mice, IV, 9.3 mL/Kg of 3.2 mg/mL solution
Protocol: The in vivo half-life of Example 1a in mice was determined by measurement of its plasma concentrations at various time points following IV dosing. 18 male CD-1 mice aged 7-9 weeks were dosed IV with a 9.3 mL/Kg dose of a 3.2 mg/mL solution of Example 1a in 15% hydroxyl-propyl-β-cyclodextrin/4.4% glucose/1 mM potassium phosphate (pH=7.6). Plasma samples were obtained at 10, 20, 30, 60, 120 and 240 min post-dose, sampling from 3 animals at each time point. Concentrations of Example 1a in plasma were determined by LC-MS quantification.

[3] = test system: Staphylococcus aureus methicillin resistant ATCC 33591; experiment: Mouse bacteraemia model; format: in vivo
Protocol: Groups of 6 male CD-1 (Crl.) derived mice weighing 24±2 g were used. Mice were inoculated intraperitoneally (IP) with an LD90-100 of Staphylococcus aureus methicillin resistant ATCC 33591 (1.1×10^7CFU/mouse) in 0.5 mL of BHI broth containing 5% mucin. The compound of example 1a and vancomycin were dissolved in 15% HPbetaCD/4.4% glucose/0.5 mM KH2PO4, pH 5.0 at doses of 1, 3, 5, 10 and 20 mg/Kg and were administered subcutaneously (SC) to test animals at 0, 2 and 24 hour(s) after bacteria challenge. The dosing volume was 5 mL/Kg. Mortality was recorded once daily for 7 days. The ED50 for each compound was determined by nonlinear regression.

Streptococcus pneumoniae = experiment: microbe, parasite or virus in culture; format: cell-based
Protocol: (§1) Susceptibility testing with the exception of Streptococcus pneumoniae was performed by two-fold serial dilutions in Mueller Hinton Broth supplemented with 50 μg/mL Ca^2+. Susceptibility testing of S. pneumoniae was performed by two-fold serial dilutions in Brain-Heart-Infusion Broth supplemented with 50 μg/mL Ca^2+.

E. faecalis = experiment: MIC susceptibility testing, vancomycin resistant Enterococci (E. faecalis); format: cell-based; details: E. faecalis 9758512, vancomycin resistant
Protocol: as §1

E. faecium = experiment: MIC susceptibility testing, vancomycin resistant Enterococci (E. faecium); format: cell-based
Protocol: as §1

In the case of `CC[C@H](C)[C@@H]1NC(=O)[C@@H]2NC(=O)[C@H](CC(C)C)NC(=O)[C@H](NC(=O)[C@@H]3CSC[C@@H](N)C(=O)N[C@@H](CO)C(=O)NCC(=O)N[C@@H](Cc4c[nH]c5ccccc45)C(=O)N[C@@H](C(C)C)C(=O)N3)[C@H](C)SC[C@H](NC(=O)[C@H](CCC(=O)O)NC1=O)C(=O)NCC(=O)N[C@H]1C(=O)N[C@@H](CC(C)C)C(=O)N[C@@H](C(C)C)C(=O)N[C@@H](CS[C@H]2C)C(=O)N[C@@H](C)C(=O)N[C@H](C(=O)NCc2cc(Cl)cc(Cl)c2)CS[C@H]1C` [Example 1a], the “antimicrobial effect in thigh infection” value [1] is reported as “significant antimicrobial effect”, the “reduction in CFU/g” value ([1]; IV ×2 (2 and 14 h), 10 mg/kg and above, thigh muscle at 26 h) is reported as over 1000 fold and the half-life [2] is reported as about 2 h. The survival rate ([3]; 3 mg/Kg, SC) was 100%, the “antimicrobial effect against S. aureus (MR) in mice” value ([3]; 3, 5, 10 and 20 mg/Kg×3, SC) was “significant antimicrobial effect” and the “increase in survival rate” value ([3]; 3, 5, 10 and 20 mg/Kg×3, SC) was “at least 50%”. For the same compound, the “estimated ED50” value ([3]; SC at 0, 2 and 24 h after challenge, mortality over 7 days, nonlinear regression) was 1.07 mg/kg.
With `CC[C@H](C)[C@@H]1NC(=O)[C@@H]2NC(=O)[C@H](CC(C)C)NC(=O)[C@H](NC(=O)[C@@H]3CSC[C@@H](N)C(=O)N[C@@H](CO)C(=O)NCC(=O)N[C@@H](Cc4c[nH]c5ccccc45)C(=O)N[C@@H](C(C)C)C(=O)N3)[C@H](C)SC[C@H](NC(=O)[C@H](CCC(=O)O)NC1=O)C(=O)NCC(=O)N[C@H]1C(=O)N[C@@H](CC(C)C)C(=O)N[C@@H](C(C)C)C(=O)N[C@@H](CS[C@H]2C)C(=O)N[C@@H](C)C(=O)N[C@H](C(=O)NCc2cc(Cl)cc(Cl)c2)CS[C@H]1C` [Example 1, Deoxyactagardine B (3,5-dichlorobenzylamine)monocarboxamide] the MIC (Streptococcus pneumoniae; isolate QB37301, penicillin Resistant) was 2 µg/mL (≈ 0.984 µM), the MIC (Streptococcus pneumoniae; isolate QB37302, penicillin Resistant) was 1 µg/mL (≈ 0.492 µM) and the MIC (Streptococcus pneumoniae; isolate QB37303, penicillin Intermediate) was 0.25 µg/mL (≈ 0.123 µM). It also gave an MIC (Streptococcus pneumoniae; isolate QB37304, penicillin Susceptible) of 0.25 µg/mL (≈ 0.123 µM), an MIC (Streptococcus pneumoniae; isolate QB37305, penicillin Susceptible) of 1 µg/mL (≈ 0.492 µM) and an MIC (Streptococcus pneumoniae; isolate QB37306, penicillin Susceptible) of 0.25 to 0.5 µg/mL. For the same compound, the MIC (Streptococcus pneumoniae; isolate QB37307, penicillin Intermediate) was 0.5 to 1 µg/mL, the MIC (Streptococcus pneumoniae; isolate QB37308, penicillin Susceptible) was 0.25 to 0.5 µg/mL and the MIC (Streptococcus pneumoniae; isolate QB37309, penicillin Resistant) was 2 µg/mL (≈ 0.984 µM). It also gave an MIC (Streptococcus pneumoniae; isolate QB37310, penicillin Resistant) of 0.25 µg/mL (≈ 0.123 µM), an MIC (Streptococcus pneumoniae; isolate QB37311, penicillin Resistant) of 0.03 µg/mL (≈ 0.0148 µM) and an MIC (Streptococcus pneumoniae; isolate QB37312, penicillin Intermediate) of 0.5 µg/mL (≈ 0.246 µM). It also gave an MIC (Streptococcus pneumoniae; isolate QB37313, penicillin Susceptible) of 0.03 µg/mL (≈ 0.0148 µM), an MIC (Streptococcus pneumoniae; isolate QB37314, penicillin Resistant) of 1 µg/mL (≈ 0.492 µM) and an MIC (Streptococcus pneumoniae; isolate QB37315, penicillin Susceptible) of 0.25 µg/mL (≈ 0.123 µM). The MIC (Streptococcus pneumoniae; isolate QB37316, penicillin Susceptible) was 2 µg/mL (≈ 0.984 µM), the MIC (Streptococcus pneumoniae; isolate QB37317, penicillin Susceptible) was 0.25 µg/mL (≈ 0.123 µM) and the MIC (Streptococcus pneumoniae; isolate QB37318, penicillin Resistant) was 0.25 µg/mL (≈ 0.123 µM). The MIC (Streptococcus pneumoniae; isolate QB37319, penicillin Resistant) was 1 µg/mL (≈ 0.492 µM), the MIC (Streptococcus pneumoniae; isolate QB37320, penicillin Intermediate) was 1 µg/mL (≈ 0.492 µM) and the MIC (E. faecalis) was 8 µg/mL (≈ 3.94 µM). For the same compound, the MIC (E. faecium; E. faecium 7662769, vancomycin resistant) was 8 µg/mL (≈ 3.94 µM), the MIC (E. faecium; E. faecium 7860190, vancomycin resistant) was 4 to 8 µg/mL and the MIC (E. faecium; E. faecium 9710577, vancomycin resistant) was 8 µg/mL (≈ 3.94 µM).
In the case of `CN[C@H](CC(C)C)C(=O)N[C@H]1C(=O)N[C@@H](CC(N)=O)C(=O)N[C@H]2C(=O)N[C@H]3C(=O)N[C@H](C(=O)N[C@H](C(=O)O)c4cc(O)cc(O)c4-c4cc3ccc4O)[C@H](O)c3ccc(c(Cl)c3)Oc3cc2cc(c3O[C@@H]2O[C@H](CO)[C@@H](O)[C@H](O)[C@H]2O[C@H]2C[C@](C)(N)[C@H](O)[C@H](C)O2)Oc2ccc(cc2Cl)[C@H]1O` [vancomycin, reference compound], the “antimicrobial effect in thigh infection” value [1] is reported as “significant antimicrobial effect”, the “reductions of CFU/g” value ([1]; IV ×2 (2 and 14 h), 30 mg/kg and above, thigh muscle at 26 h) is reported as over 100 fold and the “antimicrobial effect against S. aureus (MR) in mice” value ([3]; 3, 5, 10 and 20 mg/Kg×3, SC) is reported as “significant antimicrobial effect”. It also gave an ED50 ([3]; Staphylococcus aureus, ATCC33591, SC at 0, 2 and 24 h after challenge, mortality over 7 days, nonlinear regression, read-out: estimated ED50) of 3 mg/kg.
